# Results reported in patent publication US5530126A, “Process for the preparation of substituted 6-(pyrazol-3yl)-1,4-benzoxazin-3-ones” (Monsanto Company, priority 1994, dated 1996).
# Columns and labels:
# Assay type in all cases: in vivo
# [1] = tested on: Downy Brome; test: Pre-emergence herbicide test; conditions: Bromus tectorum, read-out: % plant inhibition (Dobr); for inhibition at 1120 g/ha: 1.12 kg/ha
# How it was run: (§1)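 Greenhouse pans: topsoil compacted to within 0.95-1.27 cm of top, seeds laid on surface, active ingredient (organic solvent or water carrier) applied, untreated topsoil cover added. Watered from below; % inhibition at ~11 d.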
# [2] = tested on: Indian Mustard; test: Pre-emergence herbicide test; conditions: Brassica juncea, read-out: % plant inhibition (Inmu); for inhibition at 1120 g/ha: 1.12 kg/ha
# How it was run: as §1
# [3] = tested on: Seedling johnsongrass; test: Pre-emergence herbicide test; conditions: Sorghum halepense, read-out: % plant inhibition (Sejg); for inhibition at 1120 g/ha: 1.12 kg/ha
# How it was run: as §1
# [4] = tested on: Wild buckwheat; test: Pre-emergence herbicide test; conditions: Fallopia convolvulus, read-out: % plant inhibition (Wibw); for inhibition at 1120 g/ha: 1.12 kg/ha
# How it was run: as §1
# [5] = tested on: Cocklebur; test: Pre-emergence herbicide test; conditions: Xanthium strumarium, read-out: % plant inhibition (Cobu); for inhibition at 1120 g/ha: 1.12 kg/ha
# How it was run: as §1
# [6] = tested on: Barnyardgrass; test: Pre-emergence herbicide test; conditions: Echinochloa crus-galli, read-out: % plant inhibition (Bygr); for inhibition at 1120 g/ha: 1.12 kg/ha
# How it was run: as §1
# [7] = tested on: Yellow nutsedge; test: Pre-emergence herbicide test; conditions: Cyperus, read-out: % plant inhibition (Yens); for inhibition at 1120 g/ha: 1.12 kg/ha
# How it was run: as §1
# [8] = tested on: Morningglory; test: Pre-emergence herbicide test; conditions: Ipomoea, read-out: % plant inhibition (Mogl); for inhibition at 1120 g/ha: 1.12 kg/ha
# How it was run: as §1
# [9] = tested on: Velvetleaf; test: Pre-emergence herbicide test; conditions: Abutilon theophrasti, read-out: % plant inhibition (Vele); for inhibition at 1120 g/ha: 1.12 kg/ha
# How it was run: as §1
# [10] = tested on: Annual bluegrass; test: Pre-emergence herbicide test; conditions: read-out: % plant inhibition (Anbg); for inhibition at 1120 g/ha: 1.12 kg/ha
# How it was run: as §1
# [11] = tested on: resistant broadleaf weeds such as pigweed, cocklebur, velvetleaf and hemp sesbania; test: Control of resistant broadleaf weeds in crops; conditions: in various crops such as corn, soybean and nuts and in forestry
# [12] = tested on: Downy Brome; test: Post-emergence herbicide test; conditions: Bromus tectorum, read-out: % plant inhibition (Dobr); for inhibition at 1120 g/ha: 1.12 kg/ha
# How it was run: (§2)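 Injury scored as percent inhibition against untreated control, usually at 11 days and occasionally at 25 days post-treatment. Greenhouse plants (2–3 weeks) received an atomized spray (~0.4% emulsifier, 1870 L/Ha, 10 psig).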
# [13] = tested on: Indian Mustard; test: Post-emergence herbicide test; conditions: Brassica juncea, read-out: % plant inhibition (Inmu); for inhibition at 1120 g/ha: 1.12 kg/ha
# How it was run: as §2
# [14] = tested on: Seedling johnsongrass; test: Post-emergence herbicide test; conditions: Sorghum halepense, read-out: % plant inhibition (Sejg); for inhibition at 1120 g/ha: 1.12 kg/ha
# How it was run: as §2
# [15] = tested on: Wild buckwheat; test: Post-emergence herbicide test; conditions: Fallopia convolvulus, read-out: % plant inhibition (Wibw); for inhibition at 1120 g/ha: 1.12 kg/ha
# How it was run: as §2
# [16] = tested on: Cocklebur; test: Post-emergence herbicide test; conditions: Xanthium strumarium, read-out: % plant inhibition (Cobu); for inhibition at 1120 g/ha: 1.12 kg/ha
# How it was run: as §2
# [17] = tested on: Barnyardgrass; test: Post-emergence herbicide test; conditions: Echinochloa crus-galli, read-out: % plant inhibition (Bygr); for inhibition at 1120 g/ha: 1.12 kg/ha
# How it was run: as §2
# [18] = tested on: Yellow nutsedge; test: Post-emergence herbicide test; conditions: Cyperus, read-out: % plant inhibition (Yens); for inhibition at 1120 g/ha: 1.12 kg/ha
# How it was run: as §2
# [19] = tested on: Morningglory; test: Post-emergence herbicide test; conditions: Ipomoea, read-out: % plant inhibition (Mogl); for inhibition at 1120 g/ha: 1.12 kg/ha
# How it was run: as §2
# [20] = tested on: Velvetleaf; test: Post-emergence herbicide test; conditions: Abutilon theophrasti, read-out: % plant inhibition (Vele); for inhibition at 1120 g/ha: 1.12 kg/ha
# How it was run: as §2
# [21] = tested on: Annual bluegrass; test: Post-emergence herbicide test; conditions: read-out: % plant inhibition (Anbg); for inhibition at 1120 g/ha: 1.12 kg/ha
# How it was run: as §2
Structure (SMILES),inhibition at 1120 g/ha [1],inhibition at 1120 g/ha [2],inhibition at 1120 g/ha [3],inhibition at 1120 g/ha [4],inhibition at 1120 g/ha [5],inhibition at 1120 g/ha [6],inhibition at 1120 g/ha [7],inhibition at 1120 g/ha [8],inhibition at 1120 g/ha [9],inhibition at 1120 g/ha [10],control of resistant broadleaf weeds [11],inhibition at 1120 g/ha [12],inhibition at 1120 g/ha [13],inhibition at 1120 g/ha [14],inhibition at 1120 g/ha [15],inhibition at 1120 g/ha [16],inhibition at 1120 g/ha [17],inhibition at 1120 g/ha [18],inhibition at 1120 g/ha [19],inhibition at 1120 g/ha [20],further results
"CC(C)OC(=O)c1cc(-c2nn(C)c(C(F)(F)F)c2Cl)c(F)cc1Cl [Compound 135, 2-chloro-5-[4-chloro-1-methyl-5-(trifluoromethyl)-1H-pyrazol-3-yl]-4-fluorobenzoic acid, 1-methylethyl ester]",100%,100%,100%,100%,90%,100%,0%,90%,100%,100%,outstanding control,100%,100%,100%,100%,100%,100%,20%,100%,100%,inhibition at 1120 g/ha [21]: 100%
"C#CCOc1cc(-c2nn(C)c(C(F)(F)F)c2Cl)c(F)cc1Cl [Compound 261, 4-Chloro-3-(4-chloro-2-fluoro-5-propargyl-oxyphenyl)-1-methyl-5-(trifluoromethyl)-1H-pyrazole]",,,,,,,,,,,outstanding control,,,,,,,,,,inhibition at 11210 g/ha ([1]; 11.21 kg/ha): 100%; inhibition at 11210 g/ha ([2]; 11.21 kg/ha): 100%; inhibition at 11210 g/ha ([3]; 11.21 kg/ha): 100%; inhibition at 11210 g/ha ([4]; 11.21 kg/ha): 100%; inhibition at 11210 g/ha ([5]; 11.21 kg/ha): 100%; inhibition at 11210 g/ha ([6]; 11.21 kg/ha): 100%; inhibition at 11210 g/ha ([7]; 11.21 kg/ha): 30%; inhibition at 11210 g/ha ([8]; 11.21 kg/ha): 100%; inhibition at 11210 g/ha ([9]; 11.21 kg/ha): 100%; inhibition at 11210 g/ha ([10]; 11.21 kg/ha): 100%; inhibition at 11210 g/ha ([12]; 11.21 kg/ha): 100%; inhibition at 11210 g/ha ([13]; 11.21 kg/ha): 100%; inhibition at 11210 g/ha ([14]; 11.21 kg/ha): 100%; inhibition at 11210 g/ha ([15]; 11.21 kg/ha): 100%; inhibition at 11210 g/ha ([16]; 11.21 kg/ha): 100%; inhibition at 11210 g/ha ([17]; 11.21 kg/ha): 100%; inhibition at 11210 g/ha ([18]; 11.21 kg/ha): 20%; inhibition at 11210 g/ha ([19]; 11.21 kg/ha): 100%; inhibition at 11210 g/ha ([20]; 11.21 kg/ha): 100%; inhibition at 11210 g/ha ([21]; 11.21 kg/ha): 100%
"CC(C)OC(=O)COc1cc(-c2nn(C)c(C(F)(F)F)c2Cl)c(F)cc1Cl [Compound 282, (2-Chloro-5-(4-chloro-1-methyl-5-(trifluoromethyl)-1H-pyrazol-3-yl)-4-fluorophenoxy)acetic acid, 1-methylethyl ester]",20%,30%,30%,90%,30%,20%,40%,90%,100%,20%,outstanding control,0%,10%,20%,100%,100%,30%,10%,70%,100%,inhibition at 1120 g/ha [21]: 0%
